Test results: patent publication US10232013B2, “Use of an antimicrobial peptide TP4 in treating a cancer” (Academia Sinica, priority 2016, dated 2019)
Marks after values point to notes of the source that are not given here. Where no end group is shown, it is not given here.

What was measured:
[1] = MTS cell viability assay, HDF; format: cell-based; conditions: human, HDF dermal fibroblasts, mean±SD, read-out: Cellular toxicity (cell viability), MTS assay
Procedure: (§1) Cell-lines used in this study were purchased from the Bioresource Collection and Research Center (BCRC) in and the cells were cultured by the standard cell culture procedures and conditions provided by the BCRC. MB231 (BCRC 60425), MB453 (BCRC 60429), and HDF cells were cultured as previously described by Ting et al. MCF7 […] cells were maintained in α-MEM medium (ThermoFisher Scientific) supplemented with 2 mM L-glutamine, 10% FBS, 0.1 mM non-essential amino acids, 1 mM sodium pyruvate, and antibiotics (100 U mL^−1 penicillin G and […] streptomycin). M10 (BCRC 60197) cells were maintained in α-MEM medium (ThermoFisher Scientific) supplemented with 10% FBS and antibiotics. With the exception of MB231 and MB453, all cells were cultured at 37° C. with 5% CO2. For the cell viability and transfection assay, 1×10^4 cells [5×10^3 M10 cells were seeded and cultured for 48 h to allow the cells sufficient time for attachment] were seeded into the wells of a 96-well plate and cultured overnight. For the transfection assays, cells were transfected with 0.1-0.4 μg FOSB/FOSAB expression plasmid (Origene Technology Inc.) and cell viability was determined after 72 h. The transfection efficiencies (number of cells expressing eGFP/all cells) of the MB231 transfection assays were determined by observing ten randomly selected fields (from three independent transfections) of control GFP plasmid transfections under an inverted microscope (Olympus, IX71) coupled to a digital camera (Olympus DP80), using an […] (LCPlanFI 20×/0.40 Ph1). CellSens standard software (Olympus) was used for image acquisition. During the drug treatment assay, inhibitors (PD98059, BAPTA-AM, and AlP II) were added 30 min prior to TP4, and cell viability was determined at indicated time-points. Transfection was performed using LipofectAMINE™ 3000 (ThermoFisher Scientific), according to the manufacturer's recommendations. Knock-down cells were generated by transducing MB231 cells with pre-synthesized FOSB (or control) shRNA lentiviral particles (Santa Cruz Biotechnology), and selecting puromycin-resistant cells in accordance with the manufacturer's standard protocol. MB231 or M10 cells stably expressing eGFP or mOrange2 were generated through transfection with peGFP-puromycin or pmOrange2-C1 plasmid, followed by puromycin (5 μg mL^−1) or G418 (500 μg mL^−1) selection as described above.
(§2) Cell viability was quantitatively analyzed using the CellTiter-Glo® Luminescent Cell Viability Assay kit (ATP assay) and CellTiter 96® AQueous Non-Radioactive Cell Proliferation Assay kit (MTS assay) (Promega) in accordance with the manufacturer's protocol. For MTS assay, 1×10^4 cells were seeded into the wells of a 96-well plate and cultured overnight [5×10^3 M10 cells were seeded and cultured for 48 h to enable sufficient well attachment]. Cells were subsequently treated with different doses of TP4 (2.5-20 μg mL^−1) and harvested at the indicated time-points (3-24 h). Reaction mixtures (20 μL: MTS+PMS, using a ratio 20:1) were directly added to the cells, and the plates were incubated for 3 h at 37° C. Absorbance at 490 nm is directly proportional to the number of living cells in culture and was measured using a photometer (SpectraMax® i3, Molecular Devices). ATP assay was performed as previously described by Ting et al. Lactate dehydrogenase (LDH) assays were performed by quantitatively measuring cell lysis with a Cytotoxicity Detection Kit^PLUS (LDH) (Roche) in accordance with the manufacturer's protocol. The LDH standard was purchased from Cayman Chemical. Briefly, 1×10^4 cells were seeded into the wells of a 96-well plate and cultured overnight. Culture media were replaced with fresh medium containing 1% FBS and cells were subsequently treated with different doses of TP4 (2.5-20 μg mL^−1). Supernatants were harvested at 3 h. […]

MB231 (MDA-MB231) cells = experiment: MTS cell viability assay, MB231; format: cell-based, human; conditions: mean±SD
Procedure: as §1, §2

MCF7 cells = experiment: MTS cell viability assay, MCF7; format: cell-based, human; conditions: mean±SD
Procedure: as §1, §2

## FIHHIIGGLFSAGKAIHRLIRRRRR [TP4, tilapia piscidin 4]
[1]; TP4 2.5 μg/mL, 3 h
  viability at 3 h, 2.5 μg/mL: 105 ± 6.49%
[1]; TP4 2.5 μg/mL, 6 h
  viability at 6 h, 2.5 μg/mL: 98.6 ± 4.42%
[1]; TP4 2.5 μg/mL, 12 h
  viability at 12 h, 2.5 μg/mL: 100 ± 4.74%
[1]; TP4 2.5 μg/mL, 24 h
  viability at 24 h, 2.5 μg/mL: 97.2 ± 5.62%
[1]; TP4 5.0 μg/mL, 3 h
  viability at 3 h, 5 μg/mL: 103 ± 5.88%
[1]; TP4 5.0 μg/mL, 6 h
  viability at 6 h, 5 μg/mL: 96.8 ± 3.43%
[1]; TP4 5.0 μg/mL, 12 h
  viability at 12 h, 5 μg/mL: 93.8 ± 3.81%
[1]; TP4 5.0 μg/mL, 24 h
  viability at 24 h, 5 μg/mL: 92.7 ± 6.58%
[1]; TP4 10.0 μg/mL, 3 h
  viability at 3 h, 10 μg/mL: 102 ± 9.49%
[1]; TP4 10.0 μg/mL, 6 h
  viability at 6 h, 10 μg/mL: 92.9 ± 2.98%
[1]; TP4 10.0 μg/mL, 12 h
  viability at 12 h, 10 μg/mL: 89.6 ± 3.87%
[1]; TP4 10.0 μg/mL, 24 h
  viability at 24 h, 10 μg/mL: 86.1 ± 9.39%
[1]; TP4 15.0 μg/mL, 3 h
  viability at 3 h, 15 μg/mL: 103 ± 9030%
[1]; TP4 15.0 μg/mL, 6 h
  viability at 6 h, 15 μg/mL: 90.8 ± 6.82%
[1]; TP4 15.0 μg/mL, 12 h
  viability at 12 h, 15 μg/mL: 85.9 ± 4.24%
[1]; TP4 15.0 μg/mL, 24 h
  viability at 24 h, 15 μg/mL: 82.2 ± 11.4%
[1]; TP4 20.0 μg/mL, 3 h
  viability at 3 h, 20 μg/mL: 98.6 ± 13%
[1]; TP4 20.0 μg/mL, 6 h
  viability at 6 h, 20 μg/mL: 81 ± 12.3%
[1]; TP4 20.0 μg/mL, 12 h
  viability at 12 h, 20 μg/mL: 80.5 ± 1.58%
[1]; TP4 20.0 μg/mL, 24 h
  viability at 24 h, 20 μg/mL: 72.2 ± 13.5%
MB231 (MDA-MB231) cells; MB231, TP4 2.5 μg/mL, 3 h
  Cellular toxicity (cell viability), MTS assay: 95.34 ± 5.56^a
MB231 (MDA-MB231) cells; MB231, TP4 2.5 μg/mL, 6 h
  Cellular toxicity (cell viability), MTS assay: 95.93 ± 8.86^a
MB231 (MDA-MB231) cells; MB231, TP4 2.5 μg/mL, 12 h
  Cellular toxicity (cell viability), MTS assay: 87.60 ± 12.28^c
MB231 (MDA-MB231) cells; MB231, TP4 2.5 μg/mL, 24 h
  Cellular toxicity (cell viability), MTS assay: 87.01 ± 9.69^c
MB231 (MDA-MB231) cells; MB231, TP4 5.0 μg/mL, 3 h
  Cellular toxicity (cell viability), MTS assay: 90.55 ± 10.57^a
MB231 (MDA-MB231) cells; MB231, TP4 5.0 μg/mL, 6 h
  Cellular toxicity (cell viability), MTS assay: 82.30 ± 6.40^d
MB231 (MDA-MB231) cells; MB231, TP4 5.0 μg/mL, 12 h
  Cellular toxicity (cell viability), MTS assay: 79.00 ± 9.48^d
MB231 (MDA-MB231) cells; MB231, TP4 5.0 μg/mL, 24 h
  Cellular toxicity (cell viability), MTS assay: 71.69 ± 6.84^d
MB231 (MDA-MB231) cells; MB231, TP4 10.0 μg/mL, 3 h
  Cellular toxicity (cell viability), MTS assay: 75.01 ± 11.29^d
MB231 (MDA-MB231) cells; MB231, TP4 10.0 μg/mL, 6 h
  Cellular toxicity (cell viability), MTS assay: 65.28 ± 6.61^d
MB231 (MDA-MB231) cells; MB231, TP4 10.0 μg/mL, 12 h
  Cellular toxicity (cell viability), MTS assay: 61.63 ± 11.38^d
MB231 (MDA-MB231) cells; MB231, TP4 10.0 μg/mL, 24 h
  Cellular toxicity (cell viability), MTS assay: 57.98 ± 6.62^d
MB231 (MDA-MB231) cells; MB231, TP4 15.0 μg/mL, 3 h
  Cellular toxicity (cell viability), MTS assay: 52.48 ± 11.16^d
MB231 (MDA-MB231) cells; MB231, TP4 15.0 μg/mL, 6 h
  Cellular toxicity (cell viability), MTS assay: 42.59 ± 10.14^d
MB231 (MDA-MB231) cells; MB231, TP4 15.0 μg/mL, 12 h
  Cellular toxicity (cell viability), MTS assay: 38.31 ± 7.26^d
MB231 (MDA-MB231) cells; MB231, TP4 15.0 μg/mL, 24 h
  Cellular toxicity (cell viability), MTS assay: 29.78 ± 4.79^d
MB231 (MDA-MB231) cells; MB231, TP4 20.0 μg/mL, 3 h
  Cellular toxicity (cell viability), MTS assay: 30.57 ± 4.64^d
MB231 (MDA-MB231) cells; MB231, TP4 20.0 μg/mL, 6 h
  Cellular toxicity (cell viability), MTS assay: 26.65 ± 7.16^d
MB231 (MDA-MB231) cells; MB231, TP4 20.0 μg/mL, 12 h
  Cellular toxicity (cell viability), MTS assay: 19.31 ± 5.73^d
MB231 (MDA-MB231) cells; MB231, TP4 20.0 μg/mL, 24 h
  Cellular toxicity (cell viability), MTS assay: 16.19 ± 4.15^d
MCF7 cells; MCF7, TP4 2.5 μg/mL, 3 h
  Cellular toxicity (cell viability), MTS assay: 98.00 ± 6.05^a
MCF7 cells; MCF7, TP4 2.5 μg/mL, 6 h
  Cellular toxicity (cell viability), MTS assay: 91.20 ± 6.51^b
MCF7 cells; MCF7, TP4 2.5 μg/mL, 12 h
  Cellular toxicity (cell viability), MTS assay: 93.01 ± 10.60^b
MCF7 cells; MCF7, TP4 2.5 μg/mL, 24 h
  Cellular toxicity (cell viability), MTS assay: 90.83 ± 5.30^b
MCF7 cells; MCF7, TP4 5.0 μg/mL, 3 h
  Cellular toxicity (cell viability), MTS assay: 83.74 ± 6.10^d
MCF7 cells; MCF7, TP4 5.0 μg/mL, 6 h
  Cellular toxicity (cell viability), MTS assay: 79.17 ± 12.06^d
MCF7 cells; MCF7, TP4 5.0 μg/mL, 12 h
  Cellular toxicity (cell viability), MTS assay: 77.79 ± 7.73^d
MCF7 cells; MCF7, TP4 5.0 μg/mL, 24 h
  Cellular toxicity (cell viability), MTS assay: 75.19 ± 11.28^d
MCF7 cells; MCF7, TP4 10.0 μg/mL, 3 h
  Cellular toxicity (cell viability), MTS assay: 75.01 ± 11.15^d
MCF7 cells; MCF7, TP4 10.0 μg/mL, 6 h
  Cellular toxicity (cell viability), MTS assay: 70.30 ± 12.26^d
MCF7 cells; MCF7, TP4 10.0 μg/mL, 12 h
  Cellular toxicity (cell viability), MTS assay: 68.89 ± 6.54^d
MCF7 cells; MCF7, TP4 10.0 μg/mL, 24 h
  Cellular toxicity (cell viability), MTS assay: 67.00 ± 10.90^d
MCF7 cells; MCF7, TP4 15.0 μg/mL, 3 h
  Cellular toxicity (cell viability), MTS assay: 45.15 ± 9.89^d
MCF7 cells; MCF7, TP4 15.0 μg/mL, 6 h
  Cellular toxicity (cell viability), MTS assay: 28.28 ± 6.29^d
MCF7 cells; MCF7, TP4 15.0 μg/mL, 12 h
  Cellular toxicity (cell viability), MTS assay: 26.23 ± 6.08^d
MCF7 cells; MCF7, TP4 15.0 μg/mL, 24 h
  Cellular toxicity (cell viability), MTS assay: 25.09 ± 3.83^d
MCF7 cells; MCF7, TP4 20.0 μg/mL, 3 h
  Cellular toxicity (cell viability), MTS assay: 24.63 ± 3.80^d
MCF7 cells; MCF7, TP4 20.0 μg/mL, 6 h
  Cellular toxicity (cell viability), MTS assay: 15.48 ± 2.33^d
MCF7 cells; MCF7, TP4 20.0 μg/mL, 12 h
  Cellular toxicity (cell viability), MTS assay: 14.36 ± 2.10^d
MCF7 cells; MCF7, TP4 20.0 μg/mL, 24 h
  Cellular toxicity (cell viability), MTS assay: 11.90 ± 3.39^d
